Data: patent US20100299770A1, “TARGETED CELL DEATH” (priority 2007, published 2010)

How the values were obtained:
CNS of adult rats = test: Animal model of CNS demyelination, virus applied to CNS of adult rats, CID intraperitoneal; type: in vivo, rat; settings: CID via intraperitoneal injection at various times after virus
Description: The virus described above, pΔmbpICP9/mEGFP, which contains the inducible caspase 9 sequence was applied to the CNS of adult rats to create an in vivo model of CNS demyelination. Administration of the viral vector allowed effective transfer of genetic information in a variable area of parenchyma based on the rate of administration (convective distribution) and viral titer. […] First, adult Fischer rats were anaesthetized by intraperitoneal injection o f ketamine hydrocholoride (80 mg/kg) and xylazine ([…]) and placed in a sereotactic frame. A midline scalp incision is made. Access to brain parenchyma was accomplished by plaement of a right-sided burr hole through the skull, at various predetermined coordinates depending on the desired location of the lesion. […] The volume of viral vector (e.g., lentivirus) delivered depends upon the infection efficacy as determined herein and the target area size. After injection, the needle is left in place for five minutes and then slowly withdrawn over the next four minutes. The skin was closed with sutures.
For virus administration to the spinal cord an incision was made in the thoracic spine followed by a lamenectomy to expose the spinal cord. A No. 32S-gauge needle was passed into the posterior column at predetermined coordinates.

[1] = test system: primary oligodendrocyte cultures; test: CID-induced cell death in iCP9 virus-transduced primary oligodendrocyte cultures; type: cell-based, rat; settings: CID 10 nM; cultures stably expressing iCP9; fluorescent microscope and Methylene Blue viability staining
Description: 293T cells were transfected with the pΔmbpICP9/mEGFP vector along with plasmids encoding the gag-pol and RD114 envelope protein using lipofectamine (Invitrogen, Carlsbad, Calif.). Forty-eight hours after transfection viral supernatant were harvested and either directly applied to target cells or snap frozen and stored at -80° C.
To induce timely cell death. Collected virus was used to transduce primary oligodendrocyte cultures that have been established. Cells were cultured and evaluated using fluorescent microscopy for the expression of GFP. The extent of GFP positive cells correlated with the viral infection efficacy. Cell protein isolation was conducted and protein isolates were subjected to Western blot transfer to detect stable expression of the iCP9 protein. The resultant membrane was probed with anti-caspase 9 antibody (R&D Systems Inc. #AF8301). Once the stable expression of iCP9 was confirmed at the protein level wan western mot techniques, the CID was applied to these cells in culture at a 10 nM concentration. […] Cell death was detected by viewing cultures under the fluorescent microscope and by using Methylene Blue (Sigma) viability staining of cells in culture after exposure to the CID. All experiments were run in parallel using the astrocyte-derived U87 cell line as a negative control.

Compound: CC[C@H](C(=O)N1CCCC[C@H]1C(=O)O[C@H](CCc1ccc(OC)c(OC)c1)c1cccc(OCC(=O)NCC(CNC(=O)COc2cccc([C@@H](CCc3ccc(OC)c(OC)c3)OC(=O)[C@@H]3CCCCN3C(=O)[C@@H](CC)c3cc(OC)c(OC)c(OC)c3)c2)CN(C)C)c1)c1cc(OC)c(OC)c(OC)c1 [CID, AP20187]
- effect of CID on the infected region of the CNS (CNS of adult rats): apoptosis of the infected region of the CNS
- cell death of infected cells after CID [1]: induced the cellular death of infected cells
